Test results taken from ChEMBL document CHEMBL1926642, “Relevance of the C-5 position to schweinfurthin induced cytotoxicity” (2011).

Assays:
Assay type in all cases: functional
[1] = system: Malme-3M; experiment: Growth inhibition of human MALME-3M cells after 48 hrs by sulforhodamine B assay
[2] = system: MDA-MB-468; experiment: Growth inhibition of human MDA-MB-468 cells after 48 hrs by sulforhodamine B assay; settings: MDA-MB-468, 48 h
[3] = system: NCI-H226; experiment: Growth inhibition of human NCI-H226 cells after 48 hrs by sulforhodamine B assay; settings: NCI-H226, 48 h
[4] = system: HCT-15; experiment: Growth inhibition of human HCT15 cells after 48 hrs by sulforhodamine B assay; settings: HCT-15, 48 h
[5] = system: T47D; experiment: Growth inhibition of human T47D cells after 48 hrs by sulforhodamine B assay
[6] = system: COLO 205; experiment: Growth inhibition of human COLO205 cells after 48 hrs by sulforhodamine B assay; settings: COLO 205, 48 h
[7] = system: PC-3; experiment: Growth inhibition of human PC3 cells after 48 hrs by sulforhodamine B assay; settings: PC-3, 48 h
[8] = system: UACC-62; experiment: Growth inhibition of human UACC62 cells after 48 hrs by sulforhodamine B assay; settings: UACC-62, 48 h
[9] = system: DU-145; experiment: Growth inhibition of human DU145 cells after 48 hrs by sulforhodamine B assay; settings: DU-145, 48 h
[10] = system: TK-10; experiment: Growth inhibition of human TK10 cells after 48 hrs by sulforhodamine B assay; settings: TK-10, 48 h
[11] = system: HOP-62; experiment: Growth inhibition of human HOP62 cells after 48 hrs by sulforhodamine B assay; settings: HOP-62, 48 h
[12] = system: HT-29; experiment: Growth inhibition of human HT-29 cells after 48 hrs by sulforhodamine B assay; settings: HT-29, 48 h
[13] = system: UO-31; experiment: Growth inhibition of human UO31 cells after 48 hrs by sulforhodamine B assay; settings: UO-31, 48 h
[14] = system: KM12; experiment: Growth inhibition of human KM12 cells after 48 hrs by sulforhodamine B assay; settings: KM12, 48 h
[15] = system: UACC-257; experiment: Growth inhibition of human UACC257 cells after 48 hrs by sulforhodamine B assay; settings: UACC-257, 48 h
[16] = system: NCI-H460; experiment: Growth inhibition of human NCI-H460 cells after 48 hrs by sulforhodamine B assay; settings: NCI-H460, 48 h
[17] = system: M14; experiment: Growth inhibition of human M14 cells after 48 hrs by sulforhodamine B assay; settings: M14, 48 h
[18] = system: SNB-75; experiment: Growth inhibition of human SNB75 cells after 48 hrs by sulforhodamine B assay; settings: SNB-75, 48 h
[19] = system: 786-0; experiment: Growth inhibition of human 786-0 cells after 48 hrs by sulforhodamine B assay; settings: 786-0, 48 h
[20] = system: HOP-92; experiment: Growth inhibition of human HOP92 cells after 48 hrs by sulforhodamine B assay; settings: HOP-92, 48 h
[21] = system: MOLT-4; experiment: Growth inhibition of human MOLT4 cells after 48 hrs by sulforhodamine B assay; settings: MOLT-4, 48 h
[22] = system: ACHN; experiment: Growth inhibition of human ACHN cells after 48 hrs by sulforhodamine B assay
[23] = system: K562; experiment: Growth inhibition of human K562 cells after 48 hrs by sulforhodamine B assay; settings: K562, 48 h
[24] = system: SN12C; experiment: Growth inhibition of human SN12C cells after 48 hrs by sulforhodamine B assay
[25] = system: NCI-H322M; experiment: Growth inhibition of human NCI-H322M cells after 48 hrs by sulforhodamine B assay
[26] = system: SF-295; experiment: Growth inhibition of human SF295 cells after 48 hrs by sulforhodamine B assay; settings: SF-295, 48 h
[27] = system: NCI/ADR-RES; experiment: Growth inhibition of human NCI/ADR-RES cells after 48 hrs by sulforhodamine B assay
[28] = read-out: pLC50 (the source's name) (converted)

Compound: COCOc1cc(/C=C/c2cc(C=O)c3c(c2)C[C@@H]2C(C)(C)[C@H](O)CC[C@@]2(C)O3)cc(OC)c1C/C=C(\C)CCC=C(C)C
- GI50 [1]: 7.94 µM
- LC50 [1]: > 100 µM
- TGI ([1]; read-out: pTGI (converted)): 95.5 µM
- GI50 [2]: 4.9 µM
- LC50 [2]: > 100 µM
- TGI ([2]; read-out: pTGI (converted)): 46.8 µM
- GI50 [3]: 28.2 µM
- LC50 [3]: > 100 µM
- TGI ([3]; read-out: pTGI (converted)): > 100 µM
- GI50 [4]: 3.31 µM
- LC50 [4]: > 100 µM
- TGI ([4]; read-out: pTGI (converted)): 51.3 µM
- GI50 [5]: 13.5 µM
- LC50 [5]: > 100 µM
- TGI ([5]; read-out: pTGI (converted)): > 100 µM
- GI50 [6]: 3.47 µM
- LC50 [6]: 51.3 µM
- TGI ([6]; read-out: pTGI (converted)): 9.33 µM
- GI50 [7]: 8.13 µM
- CC50 [7, 28]: > 100 µM
- TGI ([7]; read-out: pTGI (converted)): > 100 µM
- GI50 [8]: 4.07 µM
- LC50 (50% lethal concentration) [8]: > 100 µM
- TGI ([8]; read-out: pTGI (converted)): > 100 µM
- GI50 [9]: 13.5 µM
- LC50 [9]: > 100 µM
- TGI ([9]; read-out: pTGI (converted)): > 100 µM
- GI50 [10]: 25.1 µM
- LC50 [10]: > 100 µM
- TGI ([10]; read-out: pTGI (converted)): > 100 µM
- GI50 [11]: 4.9 µM
- LC50 [11]: > 100 µM
- TGI ([11]; read-out: pTGI (converted)): > 100 µM
- GI50 [12]: 4.37 µM
- LC50 (concentration killing 50% of cells) [12]: > 100 µM
- TGI ([12]; read-out: pTGI (converted)): > 100 µM
- GI50 [13]: 4.07 µM
- LC50 [13]: > 100 µM
- TGI ([13]; read-out: pTGI (converted)): > 100 µM
- GI50 [14]: 7.94 µM
- LC50 [14]: > 100 µM
- TGI ([14]; read-out: pTGI (converted)): 75.9 µM
- GI50 [15]: 3.98 µM
- LC50 [15]: > 100 µM
- TGI ([15]; read-out: pTGI (converted)): 49 µM
- GI50 [16]: 5.89 µM
- LC50 (concentration killing 50% of cells) [16]: > 100 µM
- TGI ([16]; read-out: pTGI (converted)): > 100 µM
- GI50 [17]: 11.2 µM
- LC50 [17]: > 100 µM
- TGI ([17]; read-out: pTGI (converted)): 64.6 µM
- GI50 [18]: 1.62 µM
- LC50 [18]: > 100 µM
- TGI ([18]; read-out: pTGI (converted)): > 100 µM
- GI50 [19]: 1.02 µM
- CC50 [19, 28]: > 100 µM
- TGI ([19]; read-out: pTGI (converted)): > 100 µM
- GI50 [20]: 15.8 µM
- LC50 [20]: > 100 µM
- TGI ([20]; read-out: pTGI (converted)): > 100 µM
- GI50 [21]: 2.82 µM
- LC50 [21]: > 100 µM
- TGI ([21]; read-out: pTGI (converted)): 13.2 µM
- GI50 [22]: 7.94 µM
- LC50 [22]: > 100 µM
- TGI ([22]; read-out: pTGI (converted)): > 100 µM
- GI50 [23]: 4.37 µM
- LC50 [23]: > 100 µM
- TGI ([23]; read-out: pTGI (converted)): 47.9 µM
- GI50 [24]: 14.8 µM
- LC50 [24]: > 100 µM
- TGI ([24]; read-out: pTGI (converted)): > 100 µM
- GI50 [25]: 89.1 µM
- LC50 [25]: > 100 µM
- TGI ([25]; read-out: pTGI (converted)): > 100 µM
- LC50 [26]: > 100 µM
- GI50 ([26]; read-out: GI50): 1.2 µM
- GI50 ([26]; read-out: pGI50 (converted)): 1.2 µM
- TGI ([26]; read-out: pTGI (converted)): 4.37 µM
- GI50 [27]: 21.4 µM
- LC50 [27]: > 100 µM
- TGI ([27]; read-out: pTGI (converted)): > 100 µM
